This passage reports CC50 and EC50 results from patent US20250011326A1, “FUSED HETEROCYCLIC DERIVATIVES AND THEIR USE IN THE TREATMENT OF HBV INFECTION” (Janssen Sciences Ireland Unlimited Company, priority 2021, published 2025).

A short description of series [1]: Cytotoxicity, cell viability by ATPlite Luminescence Assay. Format: cell-based, human. The note with it: human, HepG2 or HepG2 117 cells, 3-days incubation (unless marked *), mean value. As for the experimental part: (§1) Cytotoxicity of the compounds was tested using HepG2 or HepG2 117 cells, incubated for 3 or 4 days in the presence of compounds. The viability of the cells was assessed using the PERKIN ELMER ATPlite Luminescence Assay System.”
A general note: Cellular ATP, detected with luciferase, serves as a proxy for viable cell number.

Another series deals with HBV. The series can be described thus: Anti-HBV activity: intracellular HBV DNA by real-time PCR in HepG2.117 cell line. Format: cell-based, Hepatitis B virus. The note with it: HepG2.117 cells, HBV replication induced (absence of doxycycline), 3 days of treatment, mean value. As for the experimental part:
The anti HBV activity was measured using the HepG2.117 cell line, a stable, inducibly HBV producing cell line, which replicates HBV in the absence of doxycycline (Tet-off system). The HepG2 cell line is available from ATCCR under number HB-8065 Transfection of the HepG2 cell line can be as described in Sun and Nassal 2006 Journal of Hepatology 45 (2006) 636-645 “Stable HepG2- and Huh7-based human hepatoma cell lines for efficient regulated expression of infectious hepatitis B virus”.
For the antiviral assay, HBV replication was induced, followed by a treatment with serially diluted compound in 96-well plates. After 3 days of treatment, the antiviral activity was determined by quantification of intracellular HBV DINA using real-time PCR and an HBV specific primer set and probe.

The next series has as its system HepG2 or HepG2 117 cells. Description: Cytotoxicity, cell viability by ATPlite Luminescence Assay. Format: cell-based, human. Conditions: 3-days incubation (unless marked *), mean value. As for the experimental part:
as §1

Setting [2] is: Hepatitis B virus, HepG2.117, 72 h.

Regarding `CC(=O)NC[C@@H]1Cn2nc3c(c2C(=O)N1[C@@H](C)c1ccc(OC(F)F)cc1)CN(C(=O)c1ccc(Cl)c(C#N)c1)[C@H](C)C3` (single isomer, unassigned) [Compound 1B, N-(((3R,8R*)-2-(4-chloro-3-cyanobenzoyl)-9-((S*)-1-(4-(difluoromethoxy)phenyl)ethyl)-3-methyl-10-oxo-1,2,3,4,7,8,9,10-octahydropyrido[4′,3′:3,4]pyrazolo[1,5-a]pyrazin-8-yl)methyl)acetamide], in series [1], the CC50 (usually the concentration giving 50% cytotoxicity) at 3 days was over 50 µM. The EC50 (in general, the concentration at which the effect is half-maximal) in the series with HBV was 1.48 µM.

Take `CC(=O)NC[C@@H]1Cn2nc3c(c2C(=O)N1[C@@H](C)c1ccc(OC(F)F)cc1)CN(C(=O)c1ccc(Cl)c(C#N)c1)[C@H](C)C3` (single isomer, unassigned) [Compound 1D, N-(((3R,8S*)-2-(4-chloro-cyanobenzoyl)-9-((S*)-1-(4-(difluoromethoxy)phenyl)ethyl)-3-methyl-10-oxo-1,2,3,4,7,8,9,10-octahydropyrido[4′,3′:3,4]pyrazolo[1,5-a]pyrazin-8-yl)methyl)acetamide]: the CC50 with HepG2 or HepG2 117 cells was over 50 µM. This compound came in with a concentration for a half-maximal effect (EC50) with HBV of 0.491 µM.

In series [1], `CNC(=O)[C@@H]1Cn2nc3c(c2C(=O)N1[C@@H](C)c1ccc(OC(F)F)cc1)CN(C(=O)c1ccc(Cl)c(C#N)c1)[C@H](C)C3` (single isomer, unassigned) [Compound 2B, (3R,8S*)-2-(4-chloro-3-cyanobenzoyl)-9-((S*)-1-(4-(difluoromethoxy)phenyl)ethyl)-N,3-dimethyl-10-oxo-1,2,3,4,7,8,9,10-octahydropyrido[4′,3′:3,1]pyrazolo[1,5-a]pyrazine-8-carboxamide] had a cytotoxic concentration (CC50) at 3 days of over 50 µM. In the series on HBV (setting [2]), this compound yielded an EC50 of 0.183 µM.

In series [1], `CC1Cn2nc3c(c2C(=O)N1Cc1ccc(OC(F)F)cc1)CN(C(=O)c1ccc(Cl)c(Cl)c1)[C@H](C)C3` (single isomer, unassigned) [Compound 6A, (3R,8R*)-2-(3,4-dichlorobenzoyl)-9-(4-(difluoromethoxy)benzyl)-3,8-dimethyl-1,2,3,4,8,9-hexahydropyrido[4′,3′:3,4]pyrazolo[1,5-a]pyrazin-10(7H)-one] registered a CC50 at 3 days of 4.5 µM. Moreover, the concentration giving a half-maximal response (EC50) in the series with HBV (setting [2]) is 0.032 µM.

In series [1], `CC(c1ccc(OC(F)F)cc1)n1ncn2nc3c(c2c1=O)CN(C(=O)c1ccc(Cl)c(C(F)(F)F)c1)[C@H](C)C3` (single isomer, unassigned) [Compound 7A, (R)-9-(4-Chloro-3-(trifluoromethyl)benzoyl)-2-((R*)-1-(4-(difluoromethoxy)phenyl)ethyl)-8-methyl-7,8,9,10-tetrahydropyrido[4′,3′:3,4]pyrazolo[1,5-d][1,2,4]triazin-1(2H)-one] displayed a 50% cytotoxic concentration (CC50) at 3 days of 46.3 µM. For the same compound, the half-maximal effective concentration (EC50) in the series on HBV (setting [2]) is 0.194 µM.

In series [1], `CC(c1ccc(OC(F)F)cc1)n1ncn2nc3c(c2c1=O)CN(C(=O)c1ccc(Cl)c(Cl)c1)[C@H](C)C3` (single isomer, unassigned) [Compound 8A, (R)-9-(3,4-Dichlorobenzoyl)-2-((R*)-1-(4-(difluoromethoxy)phenyl)ethyl)-8-methyl-7,8,9,10-tetrahydropyrido[4′,3′:3,4]pyrazolo[1,5-d][1,2,4]triazin-1(2H)-one] returned a CC50 at 3 days of over 50 µM. The compound also showed an EC50 in the series on HBV (setting [2]) of 0.067 µM.

As for `CC(c1ccc(OC(F)F)cc1)n1ncn2nc3c(c2c1=O)CN(C(=O)c1ccc(Cl)c(C#N)c1)[C@H](C)C3` (single isomer, unassigned) [Compound 9B, 2-chloro-5-((R)-2-((S*)-1-(4-(difluoromethoxy)phenyl)ethyl)-8-methyl-1-oxo-1,2,7,8,9,10-hexahydropyrido[4′,3′:3,4]pyrazolo[1,5-d][1,2,4]triazine-9-carbonyl)benzonitrile], the cytotoxic concentration (CC50) at 3 days in series [1] was over 50 µM. Further, a half-maximal response with HBV (setting [2]) (EC50) required 0.13 µM.

In series [1], `CC(c1ccc(OC(F)F)cc1)n1ccn2nc3c(c2c1=O)CN(C(=O)c1ccc(Cl)c(Cl)c1)[C@H](C)C3` (single isomer, unassigned) [Compound 10A, (R)-2-(3,4-dichlorobenzoyl)-9-((R*)-1-(4-(difluoromethoxy)phenyl)ethyl)-3-methyl-1,2,3,4-tetrahydropyrido[4′,3′:3,4]pyrazolo[1,5-a]pyrazin-10(9H)-one] had a CC50 at 3 days of 32.8 µM. In the series on HBV, this compound showed an EC50 of 0.072 µM.

The compound `CC(c1ccc(OC(F)F)cc1)n1ccn2nc3c(c2c1=O)CN(C(=O)c1ccc(Cl)c(Cl)c1)[C@H](C)C3` (single isomer, unassigned) [Compound 10B, (R)-2-(3,4-dichlorobenzoyl)-9-((S*)-1-(4-(difluoromethoxy)phenyl)ethyl)-3-methyl-1,2,3,4-tetrahydropyrido[4′,3′:3,4]pyrazolo[1,5-a]pyrazin-10(9H)-one] showed a CC50 in the series on HepG2 or HepG2 117 cells of over 50 µM. Also, in the series on HBV, the EC50 is 0.294 µM.

The compound `CNC(=O)[C@H]1CN([C@@H](C)c2ccc(OC(F)F)cc2)C(=O)c2c3c(nn21)C[C@@H](C)N(C(=O)c1ccc(Cl)c(C#N)c1)C3` (single isomer, unassigned) [Compound 11B, (3R,7R*)-2-(4-chloro-3-cyanobenzoyl-9-((S*)-1-(4-(difluoromethoxy)phenyl)ethyl)-N,3-dimethyl-10-oxo-1,2,3,4,7,8,9,10-octahydropyrido[4′,3′:3,4]pyrazolo[1,5-a]pyrazine-7-carboxamide] gave a CC50 at 3 days in series [1] of over 50 µM. In the series with HBV (setting [2]), this compound gave a concentration giving a half-maximal response (EC50) of 0.058 µM.

Take `CC(=O)NC[C@@H]1CN([C@@H](C)c2ccc(OC(F)F)cc2)C(=O)c2c3c(nn21)C[C@@H](C)N(C(=O)c1ccc(Cl)c(C#N)c1)C3` (single isomer, unassigned) [Compound 13B, N-(((3R,7R*)-2-(4-chloro-3-cyanobenzoyl)-9(S*)-1-(4-(difluoromethoxy)phenyl)ethyl)-3-methyl-10-oxo-1,2,3,4,7,8,9,10-octahydropyrido[4′,3′:3,4]pyrazolo[1,5-a]pyrazin-7-yl)methyl)acetamide]: the CC50 at 3 days in series [1] is over 50 µM. This compound also gave an EC50 with HBV (setting [2]) of 0.167 µM.

With `CC(=O)NC[C@H]1CN([C@@H](C)c2ccc(OC(F)F)cc2)C(=O)c2c3c(nn21)C[C@@H](C)N(C(=O)c1ccc(Cl)c(C#N)c1)C3` (single isomer, unassigned) [Compound 13D, N-(((3R,7S*)-2-(4-chloro-3-cyanobenzoyl)-9-((S*)-1-(4-(difluoromethoxy)phenyl)ethyl)-3-methyl-10-oxo-1,2,3,4,7,8,9,10-octahydropyrido[4′,3′:3,4]pyrazolo[1,5-a]pyrazin-7-yl)methyl)acetamide], the CC50 at 3 days in series [1] is over 50 µM. In the series with HBV (setting [2]), this compound displayed an EC50 of 0.344 µM.

Compound `CC(c1ccc(OC(F)F)cc1)n1ncn2nc3c(c2c1=O)CN(C(=O)c1ccc(Cl)c(C(F)(F)F)c1)[C@H](C)C3` (stereo in doubt) [Compound 7B, (R)-9-(4-chloro-3-(trifluoromethyl)benzoyl)-2-((S*)-1-(4-(difluoromethoxy)phenyl)ethyl)methyl-7,8,9,10-tetrahydropyrido[4′,3′:3,4]pyrazolo[1,5-d][1,2,4]triazin-1(2H)-one] showed a CC50 in the series on HepG2 or HepG2 117 cells of over 50 µM. In addition, the EC50 in the series on HBV worked out at 0.262 µM.

In the case of `CC(c1ccc(OC(F)F)cc1)n1ncn2nc3c(c2c1=O)CN(C(=O)c1ccc(Cl)c(C#N)c1)[C@H](C)C3` (stereo in doubt) [Compound 9A, 2-Chloro-S—((R)-2-((R*)-1-(4-(difluoromethoxy)phenyl)ethyl)-8-methyl-1-oxo-1,2,7,8,9,10-hexahydropyrido[4′,3′:3,4]pyrazolo[1,5-d][1,2,4]triazine-9-carbonyl)benzonitrile], the cytotoxic concentration (CC50) with HepG2 or HepG2 117 cells is over 50 µM. In the series with HBV, the EC50 was determined as 0.553 µM.

Regarding `CNC(=O)[C@H]1Cn2nc3c(c2C(=O)N1Cc1ccc(OC(F)F)cc1)CN(C(=O)c1ccc(Cl)c(C#N)c1)[C@H](C)C3` [Compound 3A], the 50% cytotoxic concentration (CC50) at 3 days in series [1] was over 50 µM. For the same compound, it took 0.427 µM to reach a half-maximal effect in the series with HBV (setting [2]) (EC50).

In the case of `CC(c1ccc(OC(F)F)cc1)N1C(=O)c2c3c(nn2CC1CO)C[C@@H](C)N(C(=O)c1ccc(Cl)c(C#N)c1)C3` (stereo partly drawn) [Compound 4, 2-Chloro-5-((3R)-9-(1-(4-(difluoromethoxy)phenyl)ethyl)-8-(hydroxymethyl)-3-methyl-10-oxo-1,2,3,4,7,8,9,10-octahydropyrido[4′,3′:3,4]pyrazolo[1,5-a]pyrazine-2-carboaryl)benzonitrile], in series [1], half-maximal cytotoxicity (CC50 at 3 days) was put at 25 µM. This compound also had a concentration giving a half-maximal response (EC50) in the series with HBV (setting [2]) of 0.227 µM.

As to `CNC(=O)CC[C@H]1Cn2nc3c(c2C(=O)N1Cc1ccc(OC(F)F)cc1)CN(C(=O)c1ccc(Cl)c(C#N)c1)[C@H](C)C3` [Compound 5, 3-((3R,8S)-2-(4-chloro-3-cyanobenzoyl)-9-(4-(difluoromethoxy)benzyl)-3-methyl-10-oxo-1,2,3,4,7,8,9,10-octahydropyrido[4′3′:3,4]pyrazolo[1,5-a]pyrazin-8-yl)-N-methylpropanamide], the cytotoxic concentration (CC50) at 3 days in series [1] is over 50 µM. It took 0.414 µM to reach a half-maximal effect with HBV (setting [2]) (EC50).

The compound `CC(c1ccc(OC(F)F)cc1)N1CC(CO)n2nc3c(c2C1=O)CN(C(=O)c1ccc(Cl)c(C#N)c1)[C@H](C)C3` (stereo partly drawn) [Compound 12, 2-Chloro-5-((3R)-9-(1-(4-(difluoromethoxy)phenyl)ethyl)-7-(hydroxymethyl)-3-methyl-10-oxo-1,2,3,4,7,8,9,10-octahydropyrido[4′,3′:3,4]pyrazolo[1,5-a]pyrazine-2-carbonyl)benzonitrile] came in with a 50% cytotoxic concentration (CC50) at 3 days in series [1] of 24.9 µM. The same compound displayed an EC50 in the series on HBV (setting [2]) of 0.068 µM.
